Test results: patent publication US20230226099A1, “INHALABLE FORMULATION” (AALTO UNIVERSITY FOUNDATION SR, priority 2020, published 2023)

How the values were obtained:
[1] = system: MDR-Acinetobacter baumannii; assay: Antibiotic resistance profile of strain; format: cell-based; details: strain 5542
Pseudomonas aeruginosa = assay: Antibiotic resistance profile of strains; format: cell-based
[2] = system: Pseudomonas aeruginosa PAO1; assay: Coadministration with antibiotics, development of resistance (MIC over days); format: cell-based
Text: MIC values were categorized in three groups according to the Clinical and Laboratory Standards Institute: susceptible, intermediate susceptible and resistant.

[3] = Lung neutrophil infiltration and inflammation score after i.v. or i.n. administration; format: in vivo; details: BALB/c mice, different dosages, 24 hours
Text: Two different administration methods were use, intravenously (i.v.) or intranasally (i.n.). Pathological changes were graded according to severity (P=Present; 1=Minimal; 2=Mild; 3=Moderate).

[4] = system: lipopolysaccharides of P. aeruginosa, strain PA10; assay: Analytical ultracentrifuge sedimentation velocity analysis of interaction with LPS; format: binding, Pseudomonas aeruginosa; details: 135 μM P[5]a and 35 μM LPS, UV absorbance at 305 nm
Method: A clear initial peak of unbound P[5]a can be observer at low molecular weight (2260 Da), followed by a long and polydisperse collection of peaks, ranging from low molecular weight (S), to very high molecular weight (60.000 kDa) See Example 2.
The interaction of P[5]a with lipopolysaccharides of P. aeruginosa, strain PA10 was measured using AUC.
Analytical ultracentrifugation (AUC) is based on sedimentation of colloidal particles in a centrifugal field. During centrifugation particles move toward the bot-tom of the measuring cell. This movement leads to redistribution of particles along the measuring cell, which in turn can be expressed as a change in concentration along the measuring cell. The absorbance detector was used to follow the changes caused by centrifugation (absorbance is proportional to concentration). In simple words, in AUC the inventors measure how concentration changes during centrifugation, so they collect concentration profiles. Interaction between particles can be measured as a result of changes in the sedimentation profiles. […]
The spectra of both P[5]a and LPS from P. aeruginosa were first analysed separately (see FIGS. 11a and b). […] Because only the sedimentation of P[5]a was detected at 305 nm, the inventors were certain that any changes observed in the sedimentation profile, come from interactions between P[5]a and other particles. […]

[5] = system: MDR resistant clinical isolates; assay: Coadministration with antibiotics in MDR resistant clinical isolates; format: cell-based; details: Amikacin, Cefepime, Ceftazidime and Meropenem

## CC1=C(C(=O)O)N2C(=O)[C@@H](NC(=O)[C@H](N)c3ccccc3)[C@H]2SC1 [Cefalexin]
[1]
  Antibiotic resistance (category): Resistant to Amikacin, Amoxicillin-clavulanate, Ampicillin,

## NC[C@H]1O[C@H](O[C@H]2[C@H](O)[C@@H](O[C@H]3O[C@H](CO)[C@@H](O)[C@H](N)[C@H]3O)[C@H](N)C[C@@H]2N)[C@H](N)C[C@@H]1O [Tobramycin]
[1]
  Antibiotic resistance (category): Resistant to Amikacin, Amoxicillin-clavulanate, Ampicillin,
Pseudomonas aeruginosa; strain 5539
  Antibiotic resistance (category): resistant

## Amoxicillin-clavulanate
[1]
  Antibiotic resistance (category): Resistant to Amikacin, Amoxicillin-clavulanate, Ampicillin,

## CC[C@H]1OC(=O)[C@H](C)[C@@H](O[C@H]2C[C@@](C)(OC)[C@@H](O)[C@H](C)O2)[C@H](C)[C@@H](O[C@@H]2O[C@H](C)C[C@H](N(C)C)[C@H]2O)[C@](C)(O)C[C@@H](C)CN(C)[C@H](C)[C@@H](O)[C@]1(C)O [Azithromycin]
[1]
  Antibiotic resistance (category): Resistant to Amikacin, Amoxicillin-clavulanate, Ampicillin,

## CO/N=C(\C(=O)N[C@@H]1C(=O)N2C(C(=O)[O-])=C(C[N+]3(C)CCCC3)CS[C@H]12)c1csc(N)n1 [Cefepime]
[2]; Pseudomonas aeruginosa, 96 h, PAO1, after four days, highest concentration of antibiotic included
  MIC: 128 µg/mL

## CN(C)c1cc(NC(=O)CNC(C)(C)C)c(O)c2c1C[C@H]1C[C@H]3[C@H](N(C)C)C(O)=C(C(N)=O)C(=O)[C@@]3(O)C(O)=C1C2=O [Tigecycline]
[1]
  Antibiotic resistance (category): Resistant to Amikacin, Amoxicillin-clavulanate, Ampicillin,

## C[N+](C)(C)CCOc1cc2c(OCC[N+](C)(C)C)cc1Cc1cc(OCC[N+](C)(C)C)c(cc1OCC[N+](C)(C)C)Cc1cc(OCC[N+](C)(C)C)c(cc1OCC[N+](C)(C)C)Cc1cc(OCC[N+](C)(C)C)c(cc1OCC[N+](C)(C)C)Cc1cc(OCC[N+](C)(C)C)c(cc1OCC[N+](C)(C)C)C2.[Br-].[Br-].[Br-].[Br-].[Br-].[Br-].[Br-].[Br-].[Br-].[Br-] [P[5]a, 4,9,14,19,24,26,28,30,32,34-Deca[2-(trimethylaminio)ethoxy]hexacyclo[21.2.2.2^3,6.2^8,11.2^13,16.2^18,21]pentatriaconta1(25),3,5,8,10, 13,15,18,20,23,26,28,30,32,34-pentadecaene 10bromide]
[3]
  tolerability (lung neutrophil infiltration and inflammation score): good tolerability
[4]
  interaction with LPS: strong interaction
[2]; PAO1
  penetration of coadministered antibiotics: enhances the penetration
[2]; coadministration with Aztreonam, Cefepime, Meropenem and Tobramycin, PAO1
  development of resistance by the pathogen to the coadministered antibiotic: greatly slowed
[5]
  penetration and efficacy of coadministered antibiotics: enhances the penetration and efficacy

## NCC[C@H](O)C(=O)N[C@@H]1C[C@H](N)[C@@H](O[C@H]2O[C@H](CN)[C@@H](O)[C@H](O)[C@H]2O)[C@H](O)[C@H]1O[C@H]1O[C@H](CO)[C@@H](O)[C@H](N)[C@H]1O [Amikacin]
[1]
  Antibiotic resistance (category): Resistant to Amikacin, Amoxicillin-clavulanate, Ampicillin,
Pseudomonas aeruginosa; strain 2798 (ATCC 2798)
  Antibiotic resistance (category): Susceptible
Pseudomonas aeruginosa; strain 5539
  Antibiotic resistance (value): Susceptible to Amikacin 8 ug, intermediate to Cefepime 8 ug,
Pseudomonas aeruginosa; strain 5542, MDR
  Antibiotic resistance (value): MDR Intermediate susceptible to amikacin 16 ug, resistant to
Pseudomonas aeruginosa; strain 5550, MDR
  Antibiotic resistance (value): MDR Intermediate susceptible to amikacin 32 ug
Pseudomonas aeruginosa; strain 5834, MDR
  Antibiotic resistance (value): MDR Intermediate susceptible to amikacin 16 ug, resistant to

## Cc1cc(NS(=O)(=O)c2ccc(N)cc2)no1 [Sulfamethoxazole]
[1]
  Antibiotic resistance (category): Resistant to Amikacin, Amoxicillin-clavulanate, Ampicillin,

## C[C@H]1[C@H](NC(=O)/C(=N\OC(C)(C)C(=O)O)c2csc(N)n2)C(=O)N1S(=O)(=O)O [Aztreonam]
Pseudomonas aeruginosa; strain 2798 (ATCC 2798)
  Antibiotic resistance (category): Intermediate susceptible

## Colistin
Pseudomonas aeruginosa; strain 2798 (ATCC 2798)
  Antibiotic resistance (category): Susceptible

## CO/N=C(\C(=O)N[C@@H]1C(=O)N2C(C(=O)O)=C(COC(N)=O)CS[C@H]12)c1ccco1 [cefurixome]
Pseudomonas aeruginosa; strain 5539
  Antibiotic resistance (category): resistant

## O=C(O)c1cn(C2CC2)c2cc(N3CCNCC3)c(F)cc2c1=O [ciprofloxacin]
Pseudomonas aeruginosa; strain 5539
  Antibiotic resistance (category): resistant
Pseudomonas aeruginosa; strain 5832, MDR
  Antibiotic resistance (category): resistant

## CC1(C)S[C@@H]2[C@H](NC(=O)[C@H](N)c3ccccc3)C(=O)N2[C@H]1C(=O)O [Ampicillin]
[1]
  Antibiotic resistance (category): Resistant to Amikacin, Amoxicillin-clavulanate, Ampicillin,

## C[C@@H](O)[C@H]1C(=O)N2C(C(=O)O)=C(S[C@@H]3CN[C@H](C(=O)N(C)C)C3)[C@H](C)[C@H]12 [Meropenem]
[1]
  Antibiotic resistance (category): Resistant to Amikacin, Amoxicillin-clavulanate, Ampicillin,
Pseudomonas aeruginosa; strain 5539
  Antibiotic resistance (value): 8 µg
Pseudomonas aeruginosa; strain 5542, MDR
  Antibiotic resistance (value): 8 µg
Pseudomonas aeruginosa; strain 5827, MDR
  Antibiotic resistance (value): 16 µg
Pseudomonas aeruginosa; strain 5832, MDR
  Antibiotic resistance (value): 8 µg
Pseudomonas aeruginosa; strain 5834, MDR
  Antibiotic resistance (value): cefepime 64 ug, ceftazidime 64 ug and meropenem 64 ug

## C[C@@H](O)[C@H]1C(=O)N2C(C(=O)O)=C(S[C@@H]3CN[C@H](C(=O)Nc4cccc(C(=O)O)c4)C3)[C@H](C)[C@H]12 [Ertapenem]
[1]
  Antibiotic resistance (category): Resistant to Amikacin, Amoxicillin-clavulanate, Ampicillin,

## Piperacillin-tazobactam
[1]
  Antibiotic resistance (category): Resistant to Amikacin, Amoxicillin-clavulanate, Ampicillin,
Pseudomonas aeruginosa; strain 5539
  Antibiotic resistance (category): resistant

## CC(C)(O/N=C(\C(=O)N[C@@H]1C(=O)N2C(C(=O)[O-])=C(C[n+]3ccccc3)CS[C@H]12)c1csc(N)n1)C(=O)O [Ceftazidime]
Pseudomonas aeruginosa; strain 5539
  Antibiotic resistance (value): 8 µg
Pseudomonas aeruginosa; strain 5542, MDR
  Antibiotic resistance (value): 32 µg
Pseudomonas aeruginosa; strain 5827, MDR
  Antibiotic resistance (value): 64 µg
Pseudomonas aeruginosa; strain 5832, MDR
  Antibiotic resistance (value): 16 µg
Pseudomonas aeruginosa; strain 5834, MDR
  Antibiotic resistance (value): cefepime 64 ug, ceftazidime 64 ug and meropenem 64 ug
